Measurements published in publication PMC9542156, “Multivalent γ‐PGA‐Exendin‐4 Conjugates to Target Pancreatic β‐Cells” (Chembiochem, 2022).

Assays:
[1] = tested on: GLP‐1R of Beta‐TC‐6 cells; assay: Affinity test (cell-based competitive flow cytometric receptor binding assay); conditions: 10 nM fluorescein-labelled Ex-4, 0.5 h, 310 K, compared to Ex4-PEG-MA
Method: The binding ability of γ‐PGA‐Ex‐4 compounds to GLP‐1R expressed on β‐cells surface was examined in a competitive flow cytometric assay. This receptor binding assay was developed based on similar, receptor targeting studies, of Ex‐4 targeting[85] and folate targeting.[86] The relative competition capability to the target receptor, compared to Ex4‐PEG‐MA, was evaluated among γ‐PGA‐Ex‐4 conjugates at different degrees of functionalization. The obtained values were normalized with respect to the degree of functionalization of each bioconjugate, so that the comparison is not affected by the different amount of Ex‐4 molecules on each polymeric chain. GLP‐1R positive Beta‐TC‐6 cells were co‐incubated with fluorescein‐labelled Ex‐4 and the different Ex‐4 formulations, γ‐PGA‐Ex‐4‐1, γ‐PGA‐Ex‐4‐2, γ‐PGA‐Ex‐4‐3, and Ex4‐PEG‐MA or Ex‐4 as references. […]
5×10^5 cells were incubated with 10 nм fluorescein‐labelled Ex‐4 (Eurogentec) alone or together with the tested compounds at 310 K in RPMI supplemented with 10 % FBS. After 0.5 h the cells were washed with ice cold PBS and fluorescence of the cells was measured by flow cytometer (BD FACSCalibur). […] The binding ability of γ‐PGA‐Ex‐4 conjugates and peptides to the GLP‐1R positive cells was calculated based on the inhibition of the fluorescent Ex‐4 derived signal. […]

[2] = tested on: dipeptidyl peptidase‐IV (DPP‐IV); conditions: natural ligand GLP-1 rapidly degraded by DPP-IV; cited from earlier work
From the text: Type 2 diabetes is an unresolved pathology, related to genetic and environmental factors, which gradually decline the pancreatic islet functionality, finally culminating in a pathological phenomenon defined as hyperglycemia.[1] Pancreatic β‐cells take on a key role in the so‐called glucose homeostasis by secreting insulin and amylin.[2] A wide range of pharmacologic treatments have been developed, but none of them is considered the ultimate solution.[3] The classic target for diabetes 2 therapies is GLP‐1R, that stimulates insulin secretion upon interaction with its natural ligand, gluca ...

| Substance | Binding / affinity towards GLP‐1R positive β‐cells (in words) [1] | time to degradation by DPP‐IV [2] [min] |
| --- | --- | --- |
| HGEGTFTSDLSKQMEEE‐AVRLFIEWLys(PEG4‐Mal)KNGGPSSGAPPP S‐NH2 [Ex‐4‐PEG‐MA, exendin‐4(Lysine27‐PEG4‐maleimide), purchased from Caslo ApS] | still capable to bind GLP‐1R |  |
| glucagon‐like peptide 1 [GLP‐1] |  | < 2 |
